{"source": "paper PMC10005815", "about": "(Journal of Medicinal Chemistry, 2023)", "origin": "cited, not measured here", "tested_on": "SARS-CoV-2", "note": "Read-outs that look alike come from different tables or passages of the source.", "data": [{"smiles": "COc1ccc(C(=O)Nc2cccc(C(F)(F)F)c2)cc1Nc1nc(-c2cccnc2)c2[nH]ccc2n1", "note": "[XMU-MP-7]", "values": [{"measurement": "EC50", "setting": "read-out: EC50 against γ, δ, and o variants", "value": "< 6.9", "unit": "nM"}]}, {"smiles": "N#C[C@]1(c2ccc3c(N)ncnn23)O[C@@H](CO)[C@H](O)[C@@H]1O", "note": "[GS-441524]", "values": [{"measurement": "Increase of EC50 (resistance selection)", "value": "2.7–10.4 fold"}]}, {"smiles": "Cn1cnc(Cn2c(=O)[nH]/c(=N\\c3cc4cn(C)nc4cc3Cl)n(Cc3cc(F)c(F)cc3F)c2=O)n1", "note": "[S-217622]", "values": [{"measurement": "EC50", "setting": "read-out: SARS-CoV-2 VOCs EC50", "value": "290 to 500", "unit": "nM"}]}]}
